Drawing on PubChem BioAssay AID449736 (Sanford-Burnham Center for Chemical Genomics, 2010), this text covers IC50 for 1 molecule.

The experiment addresses Tyrosine-protein phosphatase non-receptor type 7 (Homo sapiens) (UniProt P35236). As to the kind of experiment: HePTP (PTPN7) phosphatase inhibitor potency, SAR follow-up, biochemical, set 2 (AID 449736). Particulars: recombinant HePTP phosphatase activity, inhibition.

Tyrosine-protein phosphatase non-receptor type 7 (Homo sapiens), sequence (P35236 whole entry, looked up): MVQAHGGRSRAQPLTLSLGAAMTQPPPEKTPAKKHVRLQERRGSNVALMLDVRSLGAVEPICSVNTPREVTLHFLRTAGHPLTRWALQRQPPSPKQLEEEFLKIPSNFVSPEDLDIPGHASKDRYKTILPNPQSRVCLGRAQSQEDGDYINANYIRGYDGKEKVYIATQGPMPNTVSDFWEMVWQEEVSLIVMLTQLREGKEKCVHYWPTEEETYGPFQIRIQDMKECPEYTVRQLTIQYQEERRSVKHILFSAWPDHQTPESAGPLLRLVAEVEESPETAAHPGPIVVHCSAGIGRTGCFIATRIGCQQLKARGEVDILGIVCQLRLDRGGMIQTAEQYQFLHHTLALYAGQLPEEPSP

As for `COc1cc(/C=C2\SC(=O)N(CC(=O)Nc3cccc(C)c3)C2=O)cc(Cl)c1OCC(=O)O`, the IC50 was 3.61 µM.

For orientation: IC50 means the point on the concentration scale where inhibition reaches its midpoint.
